Experimental data published in patent US20040038920A1, “Chlamydial peptides and their mimics in demyelinating disease” (priority 2003, published 2004).

Legend:
[1] = system: Lewis rats; test: Induction of EAE in Lewis rats by immunization with peptide in CFA; format: in vivo, rat; settings: for EAE Incidence (# affected animals/total # animals injected) / EAE severity score (in parentheses): Table IV, dose not given; for EAE Severity (mean group severity, max. = 3.0) / EAE Incidence: Lewis rats; for EAE severity score (in parentheses): max. = 3.0; for Encephalitogenic activity in LEW rats (in words): peptide in CFA, s.c.
Procedure: Peptides were administered subcutaneously to LEW rats at 5 μg or 50 μg doses in the standard manner. Eight- to twelve-week-old female Lewis rats (purchased from Charles River, Raleigh, N.C.) were immunized subcutaneously at the hind footpad with the appropriate synthetic peptide, emulsified in complete Freund's adjuvant (CFA, Difco, Detroit, Mich.). […] Animals were followed for 21 days post-immunization. Hematoxylin-eosin-stained and toluidine blue-stained spinal cord sections from representative rats were examined for inflammatory cell infiltration and demyelination without knowledge of the group of origin.

[2] = system: T cells from rats immunized with the chlamydial peptide; test: T cell proliferation assay (3H-thymidine), Cpn0483-primed T cells; format: cell-based, rat; settings: for Proliferation of peptide-primed T cells in response to irrelevant peptide: specificity control, priming peptide not specified; for Proliferative response of Cpn0483-primed T cells to peptide: 96 hr culture with irradiated thymocytes as APCs, FIG. 3
Procedure: (§1) To further investigate the immunopathology underlying the clinical observations, T cells were isolated from the spleens of rats immunized with Cpn0483 or MBP68-86, and recall responses were assessed using standard T cell proliferation assays.
(§2) Briefly, splenocytes were isolated from peptide-primed rats, adherent cells were removed by culture on plastic Petri dishes, and T cells were isolated on T cell columns (Biotec, Edmonton, Canada). The T cells were cultured for 96 hr with irradiated (2000rad) syngeneic thymocytes as antigen presenting cells (APCs), and peptide, in 96-well flat-bottom microtiter plates. The cultures were pulsed with ^3H-thymidine (0.5 μCi/well) 18 hr prior to harvesting cells, and 3H-thymidine incorporation was measured in a liquid scintillation counter (Wallac 1450 Microbeta Plus, Gaithersburg, Md.). Cultures were run in quadruplicate and each experiment was repeated at least twice. Dose-response studies were performed using various peptides at differing concentrations, and representative results are presented.

[3] = system: syngeneic recipients (LEW rats); test: Transfer of EAE with peptide-activated spleen cells from Cpn0483-immunized rats; format: in vivo, rat; settings: Cpn0483-primed spleen cells activated in vitro with the named peptide for 72 hr
Procedure: Both are characteristic pathological findings in the rat model of EAE (Zamvil et al., supra; Swanborg, 1995, supra) and are also observed in MS (Raine et al., 1999, supra). […] This feature is prominent in MS, but is not characteristic of acute EAE in LEW rats. When spleen cells were prepared from Cpn0483-immunized LEW rats with EAE and activated in vitro with the same peptide for 72 hr, they transferred clinical disease to 6 of 9 syngeneic recipients. Six of 9 recipients of Cpn-primed spleen cells activated with MBP68-86 also developed clinical EAE. Mononuclear infiltration was present in the spinal cords of recipients with clinical disease, as expected.

[4] = system: T cells derived from rats immunized with rat MBP68-86; test: T cell proliferation assay (3H-thymidine), rat MBP68-86-primed T cells; format: cell-based; settings: 96 hr culture with irradiated thymocytes as APCs, FIG. 4
Procedure: as §1, §2

[5] = system: short-term T cell line from Cpn0483 peptide-immunized rats; test: Cytokine secretion by short-term T cell line (ELISA); format: cell-based, rat; settings: activated for 72 hr with the chlamydial peptide
From the text: It has been well established that EAE in rodents is mediated by IFN-γ-producing Th1 inflammatory cells ((Zamvil et al., supra; Swanborg, supra; R. B. Smeltz et al., J. Immunol. 162, 829 (1999)).

[6] = 5 μg peptide s.c. in CFA, affected/total
[7] = 50 μg peptide s.c. in CFA, Table 2
[8] = 50 μg peptide s.c. in CFA, affected/total, Table 2
[9] = groups given either dose (5 μg or 50 μg)

| Substance | EAE Incidence (# affected animals/total # animals injected) [1] | EAE Incidence ([1]; Incidence at 50 μg, Table 3) | EAE severity score (in parentheses) [1] | Encephalitogenic activity in LEW rats (in words) [1] | EAE Severity (mean group severity, max. = 3.0) [1, 7] | EAE Incidence [1, 8] | also measured |
| --- | --- | --- | --- | --- | --- | --- | --- |
| HYGCLLPRNPRTED (listed as Chlamydia pneumoniae) [N4/C2 truncated] | 0/5 |  |  |  |  |  |  |
| MBP11-30: irrelevant nonencephalitogenic peptide (SAEKASKDGEIHRGEAGKKR; UniProt P04370 11-30, looked up, fragment) |  |  |  |  |  |  | Proliferation of peptide-primed T cells in response to irrelevant peptide [2]: lack of proliferation |
| MBP31-50: irrelevant nonencephalitogenic peptide (SVGKLSQTASEDSDVFGEAD; UniProt P04370 31-50, looked up, fragment) |  |  |  |  |  |  | Proliferation of peptide-primed T cells in response to irrelevant peptide [2]: lack of proliferation |
| NHYGCLLPRNPRTED (listed as Chlamydia pneumoniae) [N3/C2 truncated] | 0/5 |  |  |  |  |  |  |
| PNHYGCLLPRNPRTEDQN (listed as Chlamydia pneumoniae) [N2—truncated] | 0/5 |  |  |  |  |  |  |
| RFPNHYGCLLPRNPR (listed as Chlamydia pneumoniae) [C5—truncated] | 0/5 |  |  |  |  |  |  |
| RFPNHYGCLLPRNPRTEAQN (listed as Chlamydia pneumoniae) [Cpn D>A] | 9/10 | 9/10 | 2.7 | elicited severe EAE |  |  | EAE Severity (mean group severity, max. = 3.0) ([1]; 50 μg, Table 3): 2.7 |
| RFPNHYGCLLPRNPRTEDQN (listed as Chlamydia pneumoniae) [Cpn0483, 20-mer peptide near the C-terminus of C. pneumoniae protein Cpn0483] | 5/5 | 5/5 | 3.0 | encephalitogenic | 2.3 | 14/15 | Recipients developing clinical EAE after cell transfer [3]: 6 of 9; Proliferative response of rat MBP68-86-primed T cells to peptide [4]: cross-reacted only minimally; Proliferative response of rat MBP68-86-primed T cells to peptide ([4]; listed as chlamydial peptide): cross-react; EAE Severity (mean group severity, max. = 3.0) ([1]; 5 μg peptide s.c. in CFA): 1.8; EAE Incidence [1, 6]: 3/5; EAE Severity (mean group severity, max. = 3.0) ([1]; 50 μg, Table 3): 3.0; Demyelination in spinal cord sections ([1]; Luxol fast blue-stained sections): Significant demyelination was not observed; Initial clinical signs of EAE, time post-immunization [1, 9]: approximately 12 days; Persistence of clinical signs of EAE [1, 9]: 3 to 6 days; Encephalitogenic activity in LEW rats (in words) ([1]; listed as chlamydial peptide): as effective as guinea pig or rat MBP68-86 peptide in causing paralysis; Spinal cord inflammatory cell infiltration (histology) ([1]; spinal cords of immunized rats): Extensive perivascular cuffing and parenchymal mononuclear cell infiltration; IFN-γ secreted [5]: 7,000 pg/ml; IL-4 production [5]: did not produce detectable IL-4; Proliferative response of Cpn0483-primed T cells to peptide [2]: respond to priming peptide; Proliferative response of Cpn0483-primed T cells to peptide ([2]; listed as chlamydial peptide): responded vigorously |
| RFPNHYGSLLPRNPRTEDQN (listed as Chlamydia pneumoniae) [Cpn0483 C > S] | 8/10 |  | 2.4 | lack of effect | 2.2 | 4/5 | EAE Severity (mean group severity, max. = 3.0) ([1]; 5 μg peptide s.c. in CFA): 2.4; EAE Incidence [1, 6]: 4/5 |
| YGCLLPRNPRTEDQN (listed as Chlamydia pneumoniae) [N5—truncated] | 0/5 |  |  |  |  |  |  |
| YGSLPQKSORTQAENPV (YGSLPQKSQRSQAENPV; listed as Rattus sp.) [MBP D>A, reference compound] |  | 0/10 |  | abolished encephalitogenic activity |  |  |  |
| YGSLPQKSQRSQDENPV (Guinea pig) [gp68-86, guinea pig myelin basic protein peptide 68-86, reference compound] |  |  |  | induced clinical disease with comparable severity and time course | 3.0 | 5/5 |  |
| YGSLPQKSQRTQDENPV (listed as Rattus sp.) [rat68-86, rat myelin basic protein peptide 68-86, reference compound] | 5/5 | 5/5 | 3.0 | induced clinical disease with comparable severity and time course | 2.7 | 10/10 | Recipients developing clinical EAE after cell transfer [3]: Six of 9; Proliferative response of rat MBP68-86-primed T cells to peptide ([4]; listed as rat MBP68-86): proliferated vigorously; Proliferative response of rat MBP68-86-primed T cells to peptide ([4]; listed as ratMBP68-86): respond to priming peptide; EAE Severity (mean group severity, max. = 3.0) ([1]; 50 μg, Table 3): 3.0; Proliferative response of Cpn0483-primed T cells to peptide ([2]; listed as rat MBP68-86): responded significantly; Proliferative response of Cpn0483-primed T cells to peptide ([2]; listed as ratMBP68-86): cross-react |
